Data reported in EPA's aquatic toxicity sets.

Tested on: Tetrahymena pyriformis
Assay: 48 h IGC50 (-log10 mol/L); higher = more toxic

SMILES	48 h IGC50 (-log10 mol/L)
N#Cc1ccc(-c2ccccc2)cc1	4.24
C=COC(=O)c1ccc(C(C)(C)C)cc1	4.57
O=Cc1ccc(Br)cc1	3.59
COC(=O)CCCC(=O)OC	1.83
CCCCC(Br)C(=O)O (stereo not given)	3.46
N#Cc1cc([N+](=O)[O-])c(Cl)c([N+](=O)[O-])c1	5.66
CCS(=O)(=O)CC	1.16
CCCCCCNC(N)=S	3.86
C=C(C=O)CC	3.91
CCCC/C=C/C(C)=O	3.74
O=Cc1cccc(Cl)c1	3.41
OCC#Cc1ccccc1	3.07
OCCCBr	2.07
CCCCC(=O)c1ccccc1	3.56
CCCCCCOC(=O)c1ccccc1	4.94
O=[N+]([O-])c1cccnc1Cl	3.87
CCOC(=O)C[C@H](O)CC#N	1.36
O=Cc1ccc([N+](=O)[O-])s1	4.98
O=C/C=C/c1ccco1	3.37
C=C(C)OC(C)=O	2.51
Nc1cccc(O)c1	2.48
NCCO	1.11
O=C(c1ccccc1O)c1ccccc1O	4.16
CCN(C)CC	2.24

SMILES	48 h IGC50 (-log10 mol/L)
OCc1ccccc1-c1ccccc1	3.82
CCCCCOc1ccc(O)cc1	4.36
Cc1ccc(-c2ccccc2)cc1	4.66
COC(=O)c1ccc(OC)cc1O	3.62
C#CCSc1ccccc1	3.54
OCCCCCCCCCCO	3.22
CC(=O)c1ccc[nH]1	2.09
CCC(O)(CC)C(C)(C)C	2.83
C=COC(=O)CCCCC	3.08
CC(C)(Br)C(=O)C(C)(C)Br	3.51
CC(C)(C)C(N)=O	1.52
O=[N+]([O-])c1ccc(Br)s1	4.41
O=[N+]([O-])c1cc(F)ccc1F	3.33
CCCCOC(N)=O	2.03
CCCCC1CCC(=O)O1 (stereo not given)	2.62
OCc1cccc(Cl)c1	3.15
CCC[N+](=O)[O-]	2.01
CC(=O)NC(C)(C)C	1.84
C=C(C)C(=O)OCCC	2.35
C/C=C/C(=O)OCCCC	2.84
O=[N+]([O-])c1cc(Cl)c(Cl)c(Cl)c1	4.55
C#CC(C)(O)CCC (stereo not given)	2.1
C=CCOC(=O)CC	2.12
Cc1ccc(N)c(Cl)c1	3.18

SMILES	48 h IGC50 (-log10 mol/L)
ClCC=CCCl	4.02
NCCc1ccc(Cl)cc1	3.14
COP(=O)(OC)OC	1.18
CC(=O)C(Cl)C(C)=O	4.44
CCC(Cl)C(=O)O (stereo not given)	2.65
CCOC(=O)C(Br)(Br)C(=O)OCC	5.14
CCOC(=O)C(C)Cl (stereo not given)	2.57
CC(=O)OC/C=C/c1ccccc1	3.59
CCOC(=O)C(Br)CC (stereo not given)	3.76
Cc1cccc(C)n1	2.19
C=CCC(C(=O)OCC)C(=O)OCC	2.94
CCN(CC)CCO	1.5
C#CCOC(=O)CC	2.35
Nc1cc(Cl)c(Cl)cc1[N+](=O)[O-]	4.66
N#Cc1ccccc1C(N)=O	2.68
O=Cc1c(O)ccc2ccccc12	4.32
Cc1ccc(O)c([N+](=O)[O-])n1	3.39
C=CCI	3.8
N#Cc1c(O)ccc(O)c1C#N	2.56
NC(=S)c1ccccc1	3.09
O/N=C\c1ccccc1	2.89
Cc1cc(N)ccc1O	4.31
Cc1ccc2ccccc2c1C=O	4.23
CCCCCCC(=O)c1ccccc1	4.56

SMILES	48 h IGC50 (-log10 mol/L)
CCOc1ccc(O)cc1	3.01
CCOC(=O)CCCl	2.5
O=Cc1ccc(-c2ccccc2)cc1	4.12
CN(C)Cc1ccccc1	3.12
N#Cc1ccc(Cl)cc1	3
CCOc1ccc(C(=O)OC)cc1	3.58
O=C1CCO1	2.88
S=C=NCCCc1ccccc1	5.54
CC(C)C(Br)C(=O)O (stereo not given)	2.45
COc1ccc([N+](=O)[O-])cc1	3.54
Cc1cc(O)ccc1O	4.86
CNCCc1ccccc1	2.59
N#CCc1ccc([N+](=O)[O-])cc1	3.13
CCCCCCc1ccc(O)cc1O	4.8
C=CCOC(=O)C=C	3.68
N#Cc1cccc(O)c1	2.94
O=C(CBr)c1cc2ccccc2oc1=O	5.66
N#Cc1c(F)c(F)c(C#N)c(F)c1F	5.55
CC(C)(O)Cc1ccccc1	2.59
O=Cc1cc(O)ccc1O	3.28
NC(=S)NCc1ccccc1	3.66
O=Cc1ccc(Cl)c([N+](=O)[O-])c1	4.19
CCc1ccc(N)cc1	3.03
NCCCCO	2.02

SMILES	48 h IGC50 (-log10 mol/L)
Nc1cccc(I)c1	3.65
CC(C)(C)c1cc(O)cc(C(C)(C)C)c1	4.64
CC(C)c1cccc(O)c1	3.61
Fc1cccc2ccccc12	3.39
CC(C)(C)CCO	2.26
Oc1c(Cl)cccc1Cl	3.73
C#CC=CCO	2.44
Cc1c(N)cccc1O	2.45
CC(=O)C(Cl)Cl	3.64
CCCC(O)CC (stereo not given)	2.15
O=[N+]([O-])c1cc(Br)ccc1Br	4.37
Cc1cnc2ccccc2n1	3.02
CC(=O)c1cc(C)c(C)cc1O	3.71
CC(=O)C(C)=O	2.77
CCCCC/C=C/CCC=O	4.21
Oc1ccc(Cl)c(Cl)c1	4.75
Cc1ccc(Br)s1	3.65
C=CCCO	1.3
CCOC(=O)CC(C)C	2.28
CCOc1cc(O)ccc1OC	2.7
CCC#CCC(O)CC (stereo not given)	2.62
O=C1C=CCC1	3.64
CC(=O)c1ccc(C)o1	2.17
C#CC(C)(C)N	2.09
